Source: paper PMC9718795, “Caffeic acid N-[3,5-bis(trifluoromethyl)phenyl] amide as a non-steroidal inhibitor for steroid 5α-reductase type 1 using a human keratinocyte cell-based assay and molecular dynamics” (Scientific Reports, 2022)
Where two headings read alike, the source gives them in different places.

Experiments:
[1] = tested on: dermal papilla (DP) cells; assay: In vitro cytotoxic MTT assay against DP cells; type: cell-based, human; conditions: 0.5–50 µM, 24 h
Method: (§1) The cytotoxicity of caffeic acid and its amide derivatives were evaluated with two cell lines, human keratinocyte (HaCaT) and DP cells, using the common cell viability assay with MTT. HaCaT and DP cells were seeded at 1 × 10^4 cell/well in 96-well plates in a complete DMEM medium, incubated overnight, and treated with test compounds at 0–50 µM for 24 h. The stock solutions of all the test compounds were prepared in DMSO. Each compound was serially diluted in DMEM to achieve concentrations at 0.5–50 µM; DMEM was used as the negative control. After 24 h of treatment, the culture medium was removed, and cell viability was determined by adding 100 µL of 0.5 mg/mL MTT at 37 °C in darkness for 3 h. After removing the MTT solution, 100 µL of DMSO was added to each well to dissolve the purple formazan crystals. The absorbance was measured at 570 nm using a microplate reader, and the IC50 value was calculated. Each experiment was performed in triplicates.

[2] = tested on: human keratinocyte (HaCaT) cells; assay: In vitro cytotoxic MTT assay against HaCaT cells; type: cell-based; conditions: 0.5–50 µM, 24 h
Method: as §1

[3] = Cell viability (MTT) run in parallel with the HaCaT-based SRD5A1 inhibitory assay; set-up: species or system human; conditions: human
[4] = tested on: HaCaT cells; assay: as above; set-up: species or system human; conditions: human, 24 h, 20 µM
[5] = Cell viability (MTT) in the whole-cell kinetic study; type: cell-based; conditions: human, HaCaT cells, testosterone 0−50 µM, read-out: Cell viabilities
Method: (§2) The in vitro whole HaCaT cell-based assay for the kinetic inhibition against SRD5A1 included culturing the cells for 48 h, treating the cells with testosterone and compound 4 for 12 h and evaluating the % intensity of DHT and cell viability using HPTLC analysis and MTT assay, respectively. The HaCaT cells were seeded and incubated as same as the method shown in 3.8. For the evaluation of dose-dependent activity of testosterone, the different concentration of testosterone (0 − 50 μM) and DMEM with 0.1% DMSO were added. […] DMEM with 0.1% DMSO was used as negative control. Then, the cells were incubated for 12 h. The collection of cell culture medium, extraction process, sample preparation and HPTLC detection were prepared by the method mentioned above (3.8). The obtaining chromatogram was visualized by CAMAG HPTLC Software vision CATS and analyzed by Image J software. The percentage of DHT intensity was calculated based on the intensity of DHT normalized by the standard of DHT at 100 μM. At the same time, the cell viability of the treated cells was assessed by the MTT assay. Each experiment was repeated in triplicate.

[6] = molecular target: T1, steroid 5α-reductase type 1 (SRD5A1) (Homo sapiens, UniProt P18405); assay: HaCaT cell-based SRD5A1 inhibitory assay with direct DHT detection by HPTLC; conditions: HaCaT, read-out: % Inhibition of DHT production ± SD; for inhibition at 20 µM: compound 20 µM, 24 h
T1 construct: HaCaTs-produced SRD5A1 smoothly converted testosterone to DHT; endogenous in cells; host or cells: HaCaT human keratinocytes
T1 sequence (P18405 1-259): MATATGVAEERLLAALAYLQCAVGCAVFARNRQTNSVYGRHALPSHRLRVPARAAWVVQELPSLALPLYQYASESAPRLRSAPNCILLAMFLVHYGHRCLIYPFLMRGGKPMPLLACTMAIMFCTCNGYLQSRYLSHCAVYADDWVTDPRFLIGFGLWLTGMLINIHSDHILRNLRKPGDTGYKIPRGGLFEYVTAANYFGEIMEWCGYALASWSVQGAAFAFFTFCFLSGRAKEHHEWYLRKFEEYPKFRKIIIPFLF

[7] = molecular target: T2, HaCaTs-produced SRD5A1 (Homo sapiens, UniProt P18405); assay: Whole-cell-based kinetic study of HaCaT-produced SRD5A1 with HPTLC; conditions: no inhibitor, 12 h
T2 construct: HaCaTs-produced SRD5A1 smoothly converted testosterone to DHT; endogenous in cells; host or cells: HaCaT human keratinocytes
T2 sequence (P18405 1-259): T1 sequence (P18405 1-259)
Method: as §2

[8] = molecular target: T1, steroid 5α-reductase type 1 (SRD5A1); set-up: method as in PMID 28250347; conditions: same HaCaT cell-based assay; read-out: IC50 of SRD5A1 inhibition; cited from earlier work
[9] = substrate: C[C@]12CC[C@H]3[C@@H](CCC4=CC(=O)CC[C@@]43C)[C@@H]1CC[C@@H]2O; assay: Whole-cell-based kinetic study of HaCaT-produced SRD5A1 with HPTLC; set-up: species or system human; conditions: other: no inhibitor, Michaelis–Menten, 12 h
Method: as §2

[10] = HaCaT cells, compound 20 µM, HaCaT, 24 h, read-out: % Cell viability ± SD

O=C(O)C=Cc1ccc(O)c(O)c1 [Compound 1, 3,4-dihydroxycinnamic acid]
Toxicity against DP cells [1]: no toxicity | Toxicity against HaCaT cells [2]: no toxicity | viability at 24 h, 20 µM ([3]; % Cell viability ± SD): 86% | % Cell viability ± SD [4]: 86.38 ± 5.70%

C[C@]12CC[C@H]3[C@@H](CCC4=CC(=O)CC[C@@]43C)[C@@H]1CC[C@@H]2O [Testosterone, reference compound]
viability at 12 h [5]: ~80% | inhibition at 10 µM [6]: 0% | Vmax in the absence of inhibitors [7]: 130.9 | % DHT intensity ± S.D. ([7]; testosterone 1 µM): 15.35 ± 9.10% | % DHT intensity ± S.D. ([7]; testosterone 5 µM): 43.55 ± 10.80% | % DHT intensity ± S.D. ([7]; testosterone 10 µM): 65.05 ± 13.06% | % DHT intensity ± S.D. ([7]; testosterone 25 µM): 103.52 ± 20.66% | % DHT intensity ± S.D. ([7]; testosterone 50 µM): 105.75 ± 11.30% | viability at 24 h, 10 µM ([3]; 10 µM testosterone, substrate only, read-out: % Cell viability ± SD): 100%

CC(C)(C)NC(=O)C=Cc1ccc(O)c(O)c1 [Compound 3, 3-(3,4-dihydroxyphenyl)-N-(1,1-dimethylethyl)-2-propenamide]
inhibition at 20 µM [6]: 2 ± 2.12% | Toxicity against DP cells [1]: no toxicity | Toxicity against HaCaT cells [2]: no toxicity | viability at 24 h, 20 µM [3, 10]: 102 ± 2.09%

O=C(C=Cc1ccc(O)c(O)c1)Nc1ccccc1 [Compound 2, 3-(3,4-dihydroxyphenyl)-N-phenyl-2-propenamide]
inhibition at 20 µM [6]: 4.84 ± 2.12% | Toxicity against DP cells [1]: no toxicity | Toxicity against HaCaT cells [2]: no toxicity | viability at 24 h, 20 µM [3, 10]: 102.9 ± 0.4%

C[C@]12C=CC(=O)N[C@@H]1CC[C@@H]1[C@@H]2CC[C@]2(C)[C@@H](C(=O)Nc3cc(C(F)(F)F)ccc3C(F)(F)F)CC[C@@H]12 [Dutasteride, reference compound]
inhibition at 2.5 µM [6]: 100% | viability at 24 h, 2.5 µM ([3]; HaCaT cells, 2.5 µM, positive control, HaCaT, 24 h, read-out: % Cell viability ± SD): 88.14 ± 0.11%

CC(C)(O)c1cc2c(o1)C(=O)c1ccccc1C2=O [avicequinone C]
IC50 [8]: 4.45 ± 0.42 µM

B1: HaCaTs-produced SRD5A1 (Homo sapiens) (protein)
chain: T1 sequence (P18405 1-259)
notes: HaCaTs-produced SRD5A1 smoothly converted testosterone to DHT; endogenous in cells; host or cells: HaCaT human keratinocytes
Km [9]: 9.287 µM
